Test results reported in publication PMC11243320, “Tailoring Fibroblast-Activation Protein Targeting for Theranostics: A Comparative Preclinical Evaluation of the ^68Ga- and ^177Lu-Labeled Monomeric and Dimeric Fibroblast-Activation Protein Inhibitors DOTA.SA.FAPi and DOTAGA.(SA.FAPi)2” (Molecules, 2024).

Tested on: PC3 tumor-bearing mice
Assay: Ex vivo biodistribution of 68Ga-labeled radiotracers in PC3 xenografts
Description: U87MG and PC3 tumor-bearing mice: Female athymic BALB/c (6 weeks/16–20 g) and male athymic BALB/c nude mice (6 weeks/20–25 g) were implanted with U87MG or PC3 cells (5 × 10^6/100 µL PBS) into their right shoulder, respectively. The animals were used for biodistribution and PET/SPECT/CT imaging studies (Animal License No: BE98/2021).
Ten pmol (0.08–0.1 MBq) of the radiotracers in 100 µL of NaCl 0.9% were injected intravenously into the tail vein of U87MG and PC3 tumor-bearing mice and biodistribution studies were conducted at 1, 2, and 3 h after injection.
Saturation Binding Studies […]
The radioactivity of the culture medium, the receptor bound , the internalized and the externalized fractions were measured in a γ -counter. The externalized fraction of radioactivity was ex-pressed as the percentage of the total internalized amount.
[68Ga]Ga -DOTA.SA.FAPi and [ 68Ga]Ga -DOTAGA.(SA.FAPi) 2
Ten pmol ( 0.08 –0.1 MBq) of [68Ga]Ga -monomer and [ 68Ga]Ga -dimer in 100 µ L of NaCl 0.9% were injected intravenously into the tail vein of U87MG or PC3 tumor bearing mice . The PC3 tumor-bearing mice were used between the 15th and 17th day after the xenograft implantation and the size was 281 ± 75 mm3. The U87MG tumor-bearing mice were used between the 7th and 9th day after the implantation and the size was 210 ± 34 mm3. Animals were terminally anesthetized by intraperitoneal injection of an overdose of pento-barbital natrium (150 mg/kg; Streuli Pharma SA, Uznach, Switzerland) at 1, 2 and 3 h after injection of the radiotracers. The organs of interest were dissected and weighed, and the radioactivity in the tissue samples […]
was counted in a γ-counter. Biodistribution data are given as the percent of injected activity per gram of tissue (% IA/g) and as means ± SD (n = 4). […]
each radiotracer along with 20 nmol of UAMC1110 (total injected volume: 100 µL) and biodistribution stud-ies were performed 2 h after injection.
[177Lu]Lu-DOTA.SA.FAPi and [177Lu]Lu-DOTAGA.(SA.FAPi)2
Ten pmol (0.06-0.08 MBq) of [177Lu]Lu-monomer and [177Lu]Lu-dimer in 100 µL of NaCl 0.9% were injected intravenously into the tail vein of PC3 tumor-bearing mice. The PC3 tumor-bearing mice were used between the 15th and 17th day after the xenograft implantation and its size was 281 ± 75 mm3. Animals were terminally anesthetized by intraperitoneal injection of an overdose of pentobarbital natrium (150 mg/kg; Streuli Pharma SA, Uznach, Switzerland) 1, 4, 24 and 48 h after the injection of [177Lu]Lu-DOTA.SA.FAPi and at 4, 24, 48, 72 and 96 h after the injection of [177Lu]Lu-DOTAGA.(SA.FAPi)2. The organs of interest were dissected and weighed, and the radioactivity in the tissue samples was counted in a γ-counter. The biodistribution data are given as the percent of injected activity per gram of tissue (% IA/g) and as means ± SD (n = 4). […]
blood pools or if they were necrotic. Both tumor types were “clean” without extended vascularization; there […]
Small Animal Imaging Studies
PET images were obtained after injection of 200 pmol of [68Ga]Ga-DOTA.SA.FAPi and [68Ga]Ga-DOT-AGA.(SA.FAPi)2 (1.0–1.6 MBq/100 μL) into U87MG or PC3 xenografts at 1, 2 and 3 h after injection. Static imaging was acquired for a time period between 10 and 45 min at 1, 2 and 3 h post injection, respectively.
To visualize the extent of FAP-specific tumor uptake, PET/CT blocking studies were performed as described above, and static scans were obtained for 30 min 2 h after the injection of the radiotracer along with the blocking agent (20 nmol).
PET images were corrected for gallium-68 decay and reconstructed with 12 iterations of the maximum a posteriori (MAP) algorithm using a voxel size of 0.25 mm. No correction was applied for attenuation. In addition, a point spread function iterative deconvolution was applied. The images were normalized, filtered using a Gaussian 3D algorithm with a 1.3 mm isotropic kernel and generated using PMOD software. The CT was carried out using step and shoot mode and employed 45 kVp and 400 uA as settings. The images […]

[1] = 2 h blocking (20 nmol UAMC1110)

N#C[C@@H]1CC(F)(F)CN1C(=O)CNC(=O)c1ccnc2ccc(OCCCCNc3c(NCCNC(=O)CN4CCN(CC(=O)[O-])CCN(CC(=O)[O-])CCN(CC(=O)[O-])CC4)c(=O)c3=O)cc12.[68Ga+3] [[^68Ga]Ga-DOTA.SA.FAPi]
Biodistribution Blood (1 h): 8.5± 0.6 % IA/g | Biodistribution Bone (1 h): 3.4±0.4 % IA/g | Biodistribution Heart (1 h): 4.6±1.6 % IA/g | Biodistribution Intestine (1 h): 2.7±0.2 % IA/g | Biodistribution Kidney (1 h): 3.6±0.3 % IA/g | Biodistribution Liver (1 h): 2.4±0.1 % IA/g | Biodistribution Lung (1 h): 3.4±0.6 % IA/g | Biodistribution Muscle (1 h): 2.5±0.2 % IA/g | Biodistribution PC3-Tumor (1 h): 6.1±0.7 % IA/g | Biodistribution Pancreas (1 h): 8.9±1.0 % IA/g | Biodistribution Spleen (1 h): 2.5±0.1 % IA/g | Biodistribution Stomach (1 h): 2.0±0.4 % IA/g | Tumor/Blood ratio (1 h): 0.7±0.03 | Tumor/Liver ratio (1 h): 1.8±0.1 | Tumor/Muscle ratio (1 h): 2.4±0.4 | Tumor/Pancreas ratio (1 h): 0.7±0.1 | Biodistribution Blood (2 h): 4.8±0.3 % IA/g | Biodistribution Bone (2 h): 2.0±0.2 % IA/g | Biodistribution Heart (2 h): 1.9±0.1 % IA/g | Biodistribution Intestine (2 h): 2.6±0.2 % IA/g | Biodistribution Kidney (2 h): 2.7±0.2 % IA/g | Biodistribution Liver (2 h): 2.7±0.2 % IA/g | Biodistribution Lung (2 h): 2.2±0.1 % IA/g | Biodistribution Muscle (2 h): 2.6±0.3 % IA/g | Biodistribution PC3-Tumor (2 h): 5.4±2.4 % IA/g | Biodistribution Pancreas (2 h): 6.4±0.5 % IA/g | Biodistribution Spleen (2 h): 1.7±0.1 % IA/g | Biodistribution Stomach (2 h): 1.4±0.1 % IA/g | Tumor/Blood ratio (2 h): 1.2±0.6 | Tumor/Liver ratio (2 h): 2.1±0.1 | Tumor/Muscle ratio (2 h): 2.1±1.2 | Tumor/Pancreas ratio (2 h): 0.9±0.4 | Biodistribution Blood [1]: 0.3±0.1 % IA/g | Biodistribution Bone [1]: 0.2±0.1 % IA/g | Biodistribution Heart [1]: 0.1±0.05 % IA/g | Biodistribution Intestine [1]: 0.4± 0.1 % IA/g | Biodistribution Kidney [1]: 1.2±0.2 % IA/g | Biodistribution Liver [1]: 0.2±0.04 % IA/g | Biodistribution Lung [1]: 0.3±0.1 % IA/g | Biodistribution Muscle [1]: 0.1±0.06 % IA/g | Biodistribution PC3-Tumor [1]: 0.5±0.1 % IA/g | Biodistribution Pancreas [1]: 0.1±0.06 % IA/g | Biodistribution Spleen [1]: 0.1± 0.04 % IA/g | Biodistribution Stomach [1]: 0.1±0.07 % IA/g | Biodistribution Blood (3 h): 4.7±0.4 % IA/g | Biodistribution Bone (3 h): 3.4±2.4 % IA/g | Biodistribution Heart (3 h): 2.0±0.1 % IA/g | Biodistribution Intestine (3 h): 2.4±0.4 % IA/g | Biodistribution Kidney (3 h): 2.4±0.4 % IA/g | Biodistribution Liver (3 h): 2.6±0.4 % IA/g | Biodistribution Lung (3 h): 2.1±0.3 % IA/g | Biodistribution Muscle (3 h): 2.3±0.2 % IA/g | Biodistribution PC3-Tumor (3 h): 5.0±0.2 % IA/g | Biodistribution Pancreas (3 h): 5.1±1.1 % IA/g | Biodistribution Spleen (3 h): 1.8±0.5 % IA/g | Biodistribution Stomach (3 h): 1.6±0.1 % IA/g | Tumor/Blood ratio (3 h): 1.8±0.2 | Tumor/Liver ratio (3 h): 3.3±0.5 | Tumor/Muscle ratio (3 h): 3.8±0.4 | Tumor/Pancreas ratio (3 h): 1.7±0.4
